{"source": "patent US20060194815A1", "about": "“Methods and compositions for modulating serum cortisol levels” (priority 2003, published 2006)", "key": {"HMG-CoA reductase mRNA [1]": {"tested_on": "HMG-CoA reductase mRNA", "assay": "HMG-CoA reductase mRNA expression by Q-PCR in UT-1 cells", "format": "cell-based, Chinese hamster", "conditions": "dbcAMP induced", "experimental": "(§1) After treatment, cells were stimulated with 1 mM dbcAMP for 24 hours. At the end of the incubation, total cell RNA was extracted using. RNA STAT-60 (Tel-Test Inc, Friendswood, Tex.) according to the manufacturer's instructions. HMG-CoA reductase mRNA was quantified by Q-PCR using the ABI Prism 7700 sequence detection system (Perlin-Elmer/Applied Biosystems, Foster City, Calif.). RT reaction was performed using TaqMan® Reverse Transcription Reagents with 1 g total RNA and random hexamers as primers for each reaction according to the manufacturer's instructions. For quantifying mouse HMG-CoA reductase mRNA with Q-PCR, the primers were designed according to GenBank Accession Number BC 019782 using PE/AB Primer Express software, which is specifically designed for the selection of primers and probes. The forward primer was 5′-[…]-3′ (22 nucleotides) and reverse primer was 5′-[…]-3′ (23 nucleotides), respectively. The primers were synthesized by Bio-Synthesis Inc. (Lewisville, Tex.). Reactions were performed in a reaction mixture consisting of a 20 l volume solution containing 10 l SYBR® Green PCR Master Mix and 1 l primers mix (5 M each) with 2 l cDNA."}, "P-450SCC enzyme": {"tested_on": "P-450SCC enzyme", "assay": "Immunoblot of P-450SCC enzyme expression in Y1 cells", "format": "cell-based, mouse", "conditions": "Y1 cell extracts", "experimental": "At the end of the treatment protocol described above, Y1 cells at 90% confluency were washed 2 times with PBS, sonicated 15 seconds in extraction buffer and centrifuged at 18,500 g for 15 minutes at 4° C. Pellets were resuspended in ice-cold lysis buffer (1% Nonidet 40 in extraction buffer), sonicated briefly, and incubated on ice for 1 hour. After centrifugation (22,500 g×30 min, 4° C.), the supernatant was mixed in sample buffer 6× (0.27 M SDS, 0.6 M dithiothreitol, 0.18 M bromphenol blue in 7 ml of 0.5 M Tris-HCl, pH 6.8, and 3 ml glycerol) and boiled for 5 minutes. Proteins were subjected to SDS-PAGE (4-20% gradient SDS polyacrylamide gel) and electrophoretically transferred onto nitrocellulose membranes. The transblot sheets were blocked with 5% non fat dry milk in 25 mM Tris HCl, pH 7.5, 150 mM NaCl, and 0.1% Tween 20 overnight at 4° C. Membranes were then incubated with appropriately diluted primary antibodies 1:800 for anti-P-450SCC (Research Diagnostics Inc. Flanders, N.J.) and 1:200 for anti-StAR (Amri et al., 1996), and the reaction was detected by a peroxidase-conjugated secondary antibody (Santa Cruz Biotechnology, Santa Cruz, Calif.) and enhanced chemiluminescence (Amersham Life, Arlington Heights, Ill.). The densities of the appropriate bands were determined using the OptiQuant Acquisition & Analysis software (Packard BioScience)."}, "[2]": {"tested_on": "H295R human adrenal tumor cells", "assay": "dbcAMP-induced cortisol synthesis in H295R cells (RIA)", "format": "cell-based", "experimental": "(§2) Culture media were then changed and cells were stimulated with 1 mM dbcAMP and the treatment for 24 to 48 hours. […] The synthesis of 20-OH progesterone and progesterone in Y1 and MA-10 cell media respectively were measured by RIA (Brown et al., 1992). H295R human adrenal tumor cells were seeded in 48-well plates at 10^5 cells/well and incubated for 24 hours. […] At the end of the incubation time period, cells were treated with 1 mM dbcAMP for 48 hours. Cortisol levels in the media were determined by radioimmunoassay as previously described (Amri et al., 1996)."}, "[3]": {"tested_on": "MA-10 mouse Leydig tumor cells", "assay": "MTT cell viability, MA-10 cells", "format": "cell-based", "experimental": "Cell viability at the end of the incubation protocol described above was assessed using the mitochondrial integrity 3-(4,5-dimethylthiazol-2-yl)-2,5-diphenyl tetrazolium bromide (MTT) assay (Trevigen, Gaithersburg, Md.). Briefly, 10 l of the MTT solution were added to the cells in 100 l medium. After an incubation period of 4 hours, 100 l of detergent were added and cells were incubated overnight at 37° C. Formazan blue formation was quantified at 600 nm and 690 nm using the Victor quantitative detection spectrophotometer (EGG-Wallac, Gaithersburg, Md.) and the results expressed as (OD600-OD690)."}, "HMG-CoA reductase": {"tested_on": "HMG-CoA reductase", "assay": "HMG-CoA reductase activity in treated Y1 cells", "format": "cell-based, mouse", "conditions": "increasing concentrations", "experimental": "Cells were washed twice with ice-cold PBS and incubated with ice-cold assay buffer (0.1M sucrose, 40 mM KH2PO4, 30 mM EDTA, 50 mM KCl, 5 mM DTT, 0.25% (v/v) of Brij 96, at pH 7.4) on ice for 20 minutes. After centrifugation for 3 minutes at 14000 g (4° C.) the supernatants were collected and used for HMG-CoA reductase activity assay. The total 150 l assay mixture contained 100-200 g protein and the NADPH-generating system (2.5 mM NADP, 20 mM glucose 6-phosphate and 20 U/ml glucose 6-phosphate dehydrogenase). The reaction was started by adding substrate (^14C-HMG-CoA, 0.1 Ci) and stopped after 45 minutes by adding 10-1 of HCl 6M. ^3H-mevalonolactone was also added to the samples as an extraction recovery marker. After an additional 30 minutes incubation time, to allow complete lactonization of the product, the mixture was centrifuged. The supernatant was applied to Bond-Elut NH2 column and eluted with 1 ml of toluene/acetone (3:1). The eluate was discarded and further 4 ml of toluene/acetone was applied to the column and collected in a scintillation vial for counting ^14C-mevalonate and 3H-mevalonolactone signals (Berkhout et al., 1990)."}, "[4]": {"tested_on": "MA-10 mouse Leydig tumor cells", "assay": "dbcAMP-induced progesterone synthesis in MA-10 cells (RIA)", "format": "cell-based", "experimental": "as §2"}, "PKA": {"tested_on": "PKA", "assay": "dbcAMP-stimulated PKA activity in Y1 cells (PepTag assay)", "format": "cell-based, mouse", "parameters": "dose or concentration left out as unconfirmed", "experimental": "Y1 cells were cultured in 6-well plates (2×10^5 cells per well) and treated as described above for steroid biosynthesis. At the end of the incubation, cells were washed twice with PBS and proteins were extracted using an extraction buffer (25 mM tris-HCl pH 7.4, 0.5 mM EDTA, 0.5 mM EGTA, 10 mM-mercaptoethanol, 0.5 mM PMSF, 1 g/ml leupeptin, and 1 g/ml aprotinin). After centrifugation at 18,500 g for 15 minutes, the supernatants were kept for PKA activity assay. Samples were processed using the PepTag assay for non-radioactive detection of PKA activity following the manufacturer's recommendations (Promega Corporation, Madison, Wis.)."}, "HMG-CoA reductase mRNA [5]": {"tested_on": "HMG-CoA reductase mRNA", "assay": "HMG-CoA reductase mRNA expression by Q-PCR in Y1 cells", "format": "cell-based, mouse", "conditions": "for dbcAMP-induced HMG-CoA reductase mRNA levels: Y1 cells, 24 hours pretreatment, dbcAMP 24 hours", "experimental": "as §1"}, "[6]": {"tested_on": "Y1 mouse adrenal tumor cells", "assay": "dbcAMP-induced 20á-hydroxyprogesterone synthesis in Y1 cells (RIA)", "format": "cell-based", "experimental": "as §2"}}}
{"smiles": "CCN(CC)CCOC(=O)c1ccc(N)cc1", "note": "[procaine]", "values": [{"measurement": "inhibition of HMG-CoA reductase mRNA expression", "setting": "HMG-CoA reductase mRNA [1]", "result": "minor and not significant"}, {"measurement": "expression of the P-450SCC enzyme (immunoblot)", "setting": "P-450SCC enzyme", "result": "did not modify"}, {"measurement": "dbcAMP-stimulated cortisol production", "setting": "[2]; H295R cells, 1 mM dbcAMP", "result": "inhibited the dbcAMP-stimulated cortisol production in a dose-dependent manner"}, {"measurement": "basal cortisol production", "setting": "[2]; H295R cells, no dbcAMP", "result": "without effecting basal cortisol production"}, {"measurement": "sensitivity of human adrenal tumor cells versus mouse adrenal cells", "setting": "[2]; H295R versus Y1", "result": "less sensitive"}, {"measurement": "cell viability (MTT assay)", "setting": "[3]", "result": "did not affect"}, {"measurement": "HMG-CoA reductase activity in treated cells", "setting": "HMG-CoA reductase", "result": "reduced in a dose-dependent manner"}, {"measurement": "dbcAMP-induced progesterone synthesis", "setting": "[4]", "result": "did not affect"}, {"measurement": "dbcAMP-stimulated PKA activity", "setting": "PKA", "result": "did not affect"}, {"measurement": "dbcAMP-induced HMG-CoA reductase mRNA levels", "setting": "HMG-CoA reductase mRNA [5]", "result": "reduced in a dose-dependent manner"}, {"measurement": "dbcAMP-induced HMG-CoA reductase mRNA levels", "setting": "HMG-CoA reductase mRNA [5]; listed as Procaine", "result": "inhibited in a dose-dependent manner"}, {"measurement": "basal HMG-CoA mRNA levels", "setting": "HMG-CoA reductase mRNA [5]; no dbcAMP", "result": "without affecting"}, {"measurement": "dbcAMP-induced 20á-hydroxyprogesterone production", "setting": "[6]; Y1 cells, 1 mM dbcAMP, increasing concentrations", "result": "decreased in a dose-dependent manner"}, {"measurement": "basal steroid formation by Y1 cells", "setting": "[6]; no dbcAMP stimulus", "result": "without affecting"}]}
